In PMC6440935, “Characterization and phase I study of CLR457, an orally bioavailable pan-class I PI3-kinase inhibitor” (Investigational New Drugs, 2018):

Legend:
[1] = First-in-human phase I study: plasma pharmacokinetics; conditions: for Racc, geometric mean (CV%) / V/F, geometric mean (CV%): cycle 1 day 15
Procedure: The starting dose for CLR457 was 5 mg QD, based on preclinical toxicology studies in accordance with ICH guidelines, and was administered at the same time each day ±2 h in a fasted state. Various doses were planned up to 300 mg QD until MTD determination.
PK parameters including area under the curve (AUC), maximum serum concentration (Cmax), and time taken to reach Cmax (Tmax) were calculated using non-compartmental methods in Phoenix WinNonlin. [20]
[21] […] The Pharmacokinetic analysis set included all patients who had at least one blood sample providing evaluable PK data.

[2] = test system: Rat1-myr-p110δ tumors; assay: Rat1-myr-p110δ tumor xenograft in nude mice; format: in vivo
Procedure: (§1) [13] […] [13] […] CLR457 antitumor activity was then evaluated as described previously. […] (Supplemental Methods).
(§2) The significant level was set at p < 0.05.

[3] = test system: Rat1-myr-p110α tumors
Procedure: To evaluate antitumor activity in vivo, three xenograft models were utilized: Rat1-myr-p110α, Rat1-myr-p110δ, and HBRX2524. For Rat1-myr-p110α and Rat1-myr-p110δ, Rat1 fibroblasts were transfected with an N-terminal myristoylated form of PI3Kα or PI3Kδ isoform, which led to constitutive activation of the PI3K pathway. […] Tumor xenografts were then grown subcutaneously in nude mice or nude rats by injection of 2 to 3 × 10^6 cells into the right flank (for Rat1-myr-p110α and Rat1-myr-p110δ). For HBRX2524, a patient-derived breast cancer tumor bearing the H1047R PIK3CA activating mutation was established by subcutaneously implanting resected patient tumor samples in nude mice without any in vitro manipulations.
For the preclinical studies, absolute values for primary tumor growth and body weight were used to make the statistical comparisons between groups (one way analysis of variance [ANOVA] test followed by Dunnett’s test for normally distributed data; ANOVA on ranks for not normally distributed data followed by Dunnett’s test for equal group size or Dunn’s for unequal group size). The significant level was set at p < 0.05.
Female nude Rowett rats Hsd: RH-Fox1rnu were obtained from Harlan (Netherlands) and female Hsd: Athymic Nude-nu CPB mice were obtained from Harlan Winkelmann, Germany.

[4] = biological target: p110γ (Homo sapiens, UniProt P48736); assay: In vitro PI3K biochemical assay, p110γ
[5] = test system: HBRX2524 human primary breast tumor; assay: HBRX2524 patient-derived breast tumor xenograft in nude mice; format: in vivo
Procedure: as §1, §2

[6] = test system: blood glucose and plasma insulin levels; assay: Blood glucose and plasma insulin in tumor bearing nude rats; format: in vivo
Procedure: as §1

[7] = test system: glucose and insulin; assay: First-in-human phase I study: pharmacodynamic markers glucose and insulin; format: in vivo; conditions: 100 mg QD; not clinically significant
Procedure: At the dose of 100 mg QD, there was an increase in the pharmacodynamic markers glucose and insulin, consistent with that observed in the preclinical models, however this increase was not clinically significant (CTCAE grade ≤ 2) (Fig. 3) and was within the range of expected changes based on preclinical data (Fig. 2).

[8] = biological target: p110β (Homo sapiens, UniProt P42338); assay: In vitro PI3K biochemical assay, p110β
Sequence of p110β (P42338 2-1070 limits assumed): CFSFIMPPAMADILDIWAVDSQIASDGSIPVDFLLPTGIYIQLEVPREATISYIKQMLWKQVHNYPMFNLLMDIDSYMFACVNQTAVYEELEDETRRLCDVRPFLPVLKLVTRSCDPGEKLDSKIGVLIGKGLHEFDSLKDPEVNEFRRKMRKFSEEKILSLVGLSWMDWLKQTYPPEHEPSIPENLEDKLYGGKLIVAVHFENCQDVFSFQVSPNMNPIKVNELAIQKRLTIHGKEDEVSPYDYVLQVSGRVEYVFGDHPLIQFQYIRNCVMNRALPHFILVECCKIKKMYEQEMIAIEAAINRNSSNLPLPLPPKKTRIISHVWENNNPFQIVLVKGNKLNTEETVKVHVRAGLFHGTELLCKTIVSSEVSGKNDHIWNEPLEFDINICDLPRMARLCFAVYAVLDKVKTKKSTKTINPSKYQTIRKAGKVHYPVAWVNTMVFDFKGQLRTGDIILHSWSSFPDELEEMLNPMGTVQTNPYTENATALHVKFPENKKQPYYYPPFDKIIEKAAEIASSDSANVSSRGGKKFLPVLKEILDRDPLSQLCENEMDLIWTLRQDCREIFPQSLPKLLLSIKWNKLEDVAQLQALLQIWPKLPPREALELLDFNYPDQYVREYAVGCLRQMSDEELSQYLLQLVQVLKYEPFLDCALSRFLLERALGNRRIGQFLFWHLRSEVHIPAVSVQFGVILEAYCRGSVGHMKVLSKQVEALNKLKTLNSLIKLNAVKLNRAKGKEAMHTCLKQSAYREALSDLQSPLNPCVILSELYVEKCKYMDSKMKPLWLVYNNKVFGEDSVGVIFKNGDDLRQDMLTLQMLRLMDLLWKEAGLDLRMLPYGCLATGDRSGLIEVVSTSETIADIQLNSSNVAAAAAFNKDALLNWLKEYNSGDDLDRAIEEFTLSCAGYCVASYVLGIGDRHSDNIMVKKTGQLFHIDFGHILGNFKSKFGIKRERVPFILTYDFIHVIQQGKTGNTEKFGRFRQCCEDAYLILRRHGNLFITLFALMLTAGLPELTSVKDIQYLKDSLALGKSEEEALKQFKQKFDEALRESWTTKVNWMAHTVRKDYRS
Sequence of p110β (P27986 461-568 partner limits assumed): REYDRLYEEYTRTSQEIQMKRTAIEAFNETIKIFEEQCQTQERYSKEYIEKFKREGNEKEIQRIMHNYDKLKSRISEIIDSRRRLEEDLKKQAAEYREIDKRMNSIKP

Sequence of p110γ (P48736 whole entry): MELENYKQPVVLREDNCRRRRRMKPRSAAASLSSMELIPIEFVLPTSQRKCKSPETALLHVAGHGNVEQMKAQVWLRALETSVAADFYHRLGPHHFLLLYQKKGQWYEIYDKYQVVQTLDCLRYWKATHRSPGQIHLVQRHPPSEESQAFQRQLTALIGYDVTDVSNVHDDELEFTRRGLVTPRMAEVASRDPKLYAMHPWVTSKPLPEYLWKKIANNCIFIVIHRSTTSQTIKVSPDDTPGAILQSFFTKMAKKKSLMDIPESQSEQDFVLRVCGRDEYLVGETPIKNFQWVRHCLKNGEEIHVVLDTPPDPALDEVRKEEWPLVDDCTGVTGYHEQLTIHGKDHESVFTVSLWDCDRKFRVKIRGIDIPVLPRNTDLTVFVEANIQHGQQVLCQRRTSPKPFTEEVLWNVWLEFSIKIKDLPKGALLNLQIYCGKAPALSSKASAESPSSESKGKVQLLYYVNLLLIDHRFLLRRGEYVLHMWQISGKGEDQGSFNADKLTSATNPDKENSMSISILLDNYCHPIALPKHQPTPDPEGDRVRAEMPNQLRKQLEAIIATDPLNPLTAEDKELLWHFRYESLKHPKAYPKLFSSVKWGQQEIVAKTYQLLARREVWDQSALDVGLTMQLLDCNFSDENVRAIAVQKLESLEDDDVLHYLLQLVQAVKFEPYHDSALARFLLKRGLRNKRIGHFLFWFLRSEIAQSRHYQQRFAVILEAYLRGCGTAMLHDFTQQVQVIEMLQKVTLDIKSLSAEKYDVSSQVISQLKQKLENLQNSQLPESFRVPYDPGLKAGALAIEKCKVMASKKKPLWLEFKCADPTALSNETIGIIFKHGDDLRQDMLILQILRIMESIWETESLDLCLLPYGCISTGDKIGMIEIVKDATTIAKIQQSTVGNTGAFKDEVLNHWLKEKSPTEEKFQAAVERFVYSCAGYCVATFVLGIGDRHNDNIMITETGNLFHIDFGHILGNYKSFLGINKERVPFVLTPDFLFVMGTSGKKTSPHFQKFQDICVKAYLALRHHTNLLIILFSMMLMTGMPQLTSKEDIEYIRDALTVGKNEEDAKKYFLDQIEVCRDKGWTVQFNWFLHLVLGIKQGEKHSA

C[C@H]1OC(=O)N(c2cc(-c3cnc(N)nc3C(F)(F)F)nc(N3CCOCC3)n2)[C@H]1CO [CLR457]
Racc, geometric mean (CV%) ([1]; 5 mg, n 2): 1.4 (33.4) | V/F, geometric mean (CV%) ([1]; 5 mg, n 2): 43,139 (6.6) mL | Racc, geometric mean (CV%) ([1]; 10 mg, n 3): 1.3 (24.3) | V/F, geometric mean (CV%) ([1]; 10 mg, n 3): 66,520 (11.5) mL | Racc, geometric mean (CV%) ([1]; 20 mg, n 4): 1.1 (28.4) | V/F, geometric mean (CV%) ([1]; 20 mg, n 4): 55,193 (32.1) mL | Racc, geometric mean (CV%) ([1]; 40 mg, n 5): 1.3 (38.4) | V/F, geometric mean (CV%) ([1]; 40 mg, n 5): 115,503 (109.2) mL | V/F, geometric mean (CV%) ([1]; 70 mg, n 4): 72,822 (49.9) mL | Racc, geometric mean (CV%) ([1]; 70 mg, n 5): 1.4 (29.5) | Racc, geometric mean (CV%) ([1]; 100 mg, n 4): 1.3 (37.0) | V/F, geometric mean (CV%) ([1]; 100 mg, n 4): 67,311 (38.2) mL | Steady state ([1]; repeated daily dosing): reached by C1D15 | Dose at which tumor regression occurred [2]: 20 mg/kg BID | Antitumor activity ([3]; 3, 10, 30, 60 mg/kg QD and 30 mg/kg BID oral): dose proportional antitumor activity | Dose at which tumor regression was observed ([3]; oral): ≥ 30 mg/kg QD | IC50 [4]: 230 ± 31 nM | Dose at which tumor regression occurred [5]: 20 mg/kg BID | Plasma insulin levels [6]: increased proportionally to CLR457 concentration | Blood glucose levels ([6]; at the dose necessary for tumor regression): moderately perturbed | CTCAE grade of increase in glucose and insulin [7]: ≤ 2 | IC50 [8]: 56 ± 35 nM
